The test system of assay [1] is ulcer found on the duodenum. Description: Healing of acetic acid induced duodenal ulcer (Example 10). As to conditions: 20 µg/kg/day oral, 10 days. In kind it is in vivo, male rats. The method, then:
Fourty five male rats of body weight of 240 to 260 g were equally divided into three groups, each consisting of 15 animals, and they were subjected to an operation following the method of Okabe et al. (refer to Amer. J. Dig. Dia., 16, 277, 1971), in which under anesthesia by ether, a circular frame made of a metal was placed on the serosa 5 to 7 mm from the pylorus and 0.06 ml of gracial acetic acid was poured onto the round part within the frame and after 30 sec, the acetic liquid was removed with the frame.
The thus operated rats of the first group were administered orally with a suspension of […] of 24R,25-(OH)2 -D3 in Panacete®810 containing 0.2% by weight of ethanol once a day for continuous 10 days from the third day of the operation at a daily dose rate of 20 micrograms of 24R,25-(OH)2 -D3 /kg. To the thus operated rats of the second group (control), only Panacete®810 was orally administered at a daily dose rate of 2 ml/kg for continuous 10 days.
The thus operated rats of the third group were used in the comparative test. Namely, they were treated in the same manner as those of the first group except for administration of gefarnate (3,7-dimethyl-2,6-octadienyl-5,9,13-trimethyl-4,8,12-tetradecatrienoate) at a daily dose rate of 20 microgram/kg body weight in stead of 24R,25-(OH)2 -D3 in the first group.
After finishing the final administration, all the rats were sacrificed by ether and their duodenum was taken out for autopsy. The length and the width of the ulcer found on the duodenum were measured, and their product with a unit of mm^2 was taken and named as the ulcer coefficient. The rate of healing of the ulcer was calculated by the following formula: [formula] wherein C is the ulcer coefficient of control and U is the ulcer coefficient of the group to which the present compound was administered.

Assay [2] deals with LICR-LON-HMy 2 cells derived from human myeloma. Kind of assay: Inhibition of proliferation of LICR-LON-HMy 2 cells (Example 25). The class given is cell-based. The settings on record: 3 days. The method, then:
In a similar manner to Example 24, in vitro proliferated strain of LICR-LON-HMy 2 cells derived from human myeloma were cultured in each one of the same culture mediums as those used in Example 24. After culturing for 3 days, the cultured medium was stained with tripan blue and observed under a microscope to count the number of living cells, the results being shown in Table 19.
In Table 19, the inhibition rate is based on the number of cells in the culture medium added specifically with dimethylsulfoxide as in Example 24.

Assay [3] relates to content of magnesium in serum. Kind of assay: Serum magnesium in rats given puromycin aminonucleoside (Example 15). The class given is in vivo, male Wistar rats. As to conditions: AN 1.5 mg/100 g. How it is done: Forty male Wistar rats in 9th week after birth were divided into four groups, and the rats of each group were treated as follows.
To the rats of the first group were administered subcutaneously physiological saline solution once a day for continuous 12 days at a daily dose of 0.1 ml/100 g body weight with the simultaneous oral administration of triglyceride ester of fatty acid used in Example 1 (abbreviated as MCT) containing 0.1% by weight of ethanol once a day for continuous 12 days at a daily dose of 0.2 ml/100 g body weight followed by oral administration of only MCT once a day for another 3 continuous days at the same daily dose rate.
To the rats of the second group were subcutaneously administered a solution of 1.5 mg of puromycin aminonucleoside (abbreviated hereinafter as AN) in 0.1 ml of physiological saline solution once a day for continuous 12 days at a daily dose rate of 1.5 mg of AN/100 g body weight. The saline solution had been sterilized with a Milipore filter before administration. To the rats were further administered orally MCT in the same manner as in those of the first group. […]
On 15th day after the commencement of the above-mentioned administration, blood specimen was collected from all the rats, and after preparing each specimen of serum from each blood specimen, the content of magnesium in each serum specimen was determined by atomic absorption method. […]

The next assay has as its system gastric ulcer. Description: Prevention of gastric ulcer due to pyloric ligation (Example 9). The class given is in vivo, male Wistar rats. The settings on record: 200 µg/kg i.p. once after pyloric ligation, 15 h. How it is done: Twenty male Wistar rats of average body weight of 250 g were divided equally into two groups, and used in the following test:
After 36 hour fasting, all the rats were subjected to pyloric ligation, and the rats of the first group were administered with 2 ml/kg of Panacete®810 (triglyceride ester of C8 and C10 -fatty acid, made by Nippon Oil & Fats Co., Ltd.) containing 0.2% by weight of ethanol intraperitoneally once just after ligation. The rats of the second group were administered with 24R,25-(OH)2 -D3 dissolved in Panacete®810 containing 0.2% by weight of ethanol intraperitoneally at a dose rate of 200 micrograms/kg body weight once just after ligation. After 15 hours of administration, all the rats were subjected to gastrectomy, and the presence or absence of the gastroparietal ulcer was examined on all the resected stomach.
As a result, the occurrence of gastric ulcer was found on 9 rats of 10 rats of the first group, and on 2 rats of 10 rats of the second group.
In a similar test, 24S,25-(OH)2 -D3 was used instead of 24R,25-(OH)2 -D3 to examine its effect in preventing the occurrence of gastric ulcer due to pyloric ligation. As a result, the occurrence of gastric ulcer was recognized on 3 rats of 10 rats of the group similarly treated to those of the second group.

Molecule `C=C1CC[C@H](O)C/C1=C/C=C1\CCC[C@]2(C)[C@@H]([C@H](C)CC[C@@H](O)C(C)(C)O)CC[C@@H]12` [24R,25-(OH)2 -D3] yielded a ulcer coefficient in assay [1] of 1.5 mm^2. The “rate of ulcer healing” value in assay [1] (vs control) is 80%. For the same molecule, the “Number of myeloma cells after culture” value in assay [2] (1 microgram/ml) is recorded as 8.0 ×10^5 cells/ml; in assay [2] (10 micrograms/ml), 0.4 ×10^5 cells/ml. Also, the inhibition (as a rule, the change of the read-out against control, counted positive when it falls) at 1 µg/mL in assay [2] (Homo sapiens, 72 h, 1 microgram/ml, vs dimethylsulfoxide, read-out: Inhibition Rate of the myeloma cells) is 12%. For the same molecule, in assay [2] (Homo sapiens, 72 h, 10 micrograms/ml, vs dimethylsulfoxide, read-out: Inhibition Rate of the myeloma cells), the inhibition at 10 µg/mL came out at 96%. The Mg in serum in assay [3] (3rd group, dose 1 per 100 g b.w. oral 12 days) came to 4.5 ± 0.32 mg/dL; in assay [3] (4th group, dose 10 per 100 g b.w. oral 12 days), 4.3 ± 0.30 mg/dL. For the same molecule, the “occurrence of gastric ulcer” value in the assay on gastric ulcer was 2 rats of 10 rats.

(Values after US4442093A, “Method for administering 24,25-dihydroxycholecalciferol to persons suffering from hypercalcemia” (Kureha Kagaku Kogyo Kabushiki Kaisha, priority 1981, dated 1984).)
